# Target: T1, human LPA1 (Homo sapiens, UniProt Q92633)
# T1 construct: expressed in transfected cells; host or cells: Chinese hamster ovary (CHO) cells
# Experiment: LPA1 functional antagonist assay (LPA-induced calcium flux)
# Format: cell-based
# Settings: CHO cells overexpressing human LPA1, 10 nM LPA, read-out: hLPA1 IC50
# Description: The effectiveness of compounds of the present invention as LPA1 inhibitors can be determined in an LPA1 functional antagonist assay as follows:
# Chinese hamster ovary cells overexpressing human LPA1 were plated overnight (15,000 cells/well) in poly-D-lysine coated 384-well microplates (Greiner bio-one, Cat #781946) in DMEM/F12 medium (Gibco, Cat #11039). Following overnight culture, cells were loaded with calcium indicator dye (AAT Bioquest Inc, Cat #34601) for 30 minutes at 37° C. The cells were then equilibrated to room temperature for 30 minutes before the assay. Test compounds solubilized in DMSO were transferred to 384 well non-binding surface plates (Corning, Cat #3575) using the Labcyte Echo acoustic dispense and diluted with assay buffer [1×HBSS with calcium/magnesium (Gibco Cat #14025-092), 20 mM HEPES (Gibco Cat #15630-080) and 0.1% fatty acid free BSA (Sigma Cat #A9205)] to a final concentration of 0.5% DMSO. Diluted compounds were added to the cells by FDSS6000 (Hamamatsu) at final concentrations ranging from 0.08 nM to 5 μM. and were then incubated for 20 min at room temperature at which time LPA (Avanti Polar Lipids Cat #857130C) was added at final concentrations of 10 nM to stimulate the cells. The compound IC50 value was defined as the concentration of test compound which inhibited 50% of the calcium flux induced by LPA alone. IC50 values were determined by fitting data to a 4-parameter logistic equation (GraphPad Prism, San Diego Calif.).
# T1 sequence (Q92633 whole entry): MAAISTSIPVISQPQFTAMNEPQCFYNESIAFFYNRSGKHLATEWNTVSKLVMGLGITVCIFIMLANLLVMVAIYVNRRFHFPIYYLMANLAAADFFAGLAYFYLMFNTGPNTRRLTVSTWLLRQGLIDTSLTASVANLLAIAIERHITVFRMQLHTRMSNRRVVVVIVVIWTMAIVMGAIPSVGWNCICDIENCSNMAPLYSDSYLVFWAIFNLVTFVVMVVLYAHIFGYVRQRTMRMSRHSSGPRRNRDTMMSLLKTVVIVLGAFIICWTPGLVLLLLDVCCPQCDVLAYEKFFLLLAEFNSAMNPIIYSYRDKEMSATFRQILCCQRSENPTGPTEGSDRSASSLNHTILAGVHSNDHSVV
row,SMILES,IC50
1,"Cn1ncc(-c2ccc(O[C@H]3CCC[C@H](C(=O)O)C3)cn2)c1CNc1nccc(-c2ccccc2)n1 (relative stereo) [Example 1, Trans-3-((6-(1-methyl-5-(((4-phenylpyrimidin-2-yl)amino)methyl)-1H-pyrazol-4-yl)pyridin-3-yl)oxy)cyclohexane-1-carboxylic acid]",122 nM
2,"Cn1ncc(-c2ccc(O[C@H]3CCC[C@H](C(=O)O)C3)cn2)c1COc1cccc(-c2ccccc2)c1 (relative stereo) [Example 30, Trans-3-((6-(5-(([1,1′-biphenyl]-3-yloxy)methyl)-1-methyl-1H-pyrazol-4-yl)pyridin-3-yl)oxy)cyclohexane-1-carboxylicacid]",104 nM
3,"Cc1nc(-c2cnn(C)c2CNc2nccc(-c3ccccc3)n2)ccc1O[C@H]1CCC[C@H](C(=O)O)C1 [Example 4, (1S,3S)-3-((2-methyl-6-(1-methyl-5-(((4-phenylpyrimidin-2-yl)amino)methyl)-1H-pyrazol-4-yl)pyridin-3-yl)oxy)cyclohexanecarboxylic acid]",54 nM
4,"Cc1cc(-c2ccccn2)nc(NCc2c(-c3ccc(O[C@H]4CCC[C@H](C(=O)O)C4)c(C)n3)cnn2C)n1 [Example 5, (1S,3S)-3-((2-methyl-6-(1-methyl-5-(((4-methyl-6-(pyridin-2-yl)pyrimidin-2-yl)amino)methyl)-1H-pyrazol-4-yl)pyridin-3-yl)oxy)cyclohexanecarboxylic acid]",217 nM
5,"COc1ccnc(NCc2c(-c3ncc(O[C@H]4CCC[C@H](C(=O)O)C4)c(C)n3)cnn2C)n1 [Example 6, (1S,3S)-3-((2-(5-(((4-methoxy-pyrimidin-2-yl)amino)methyl)-1-methyl-1H-pyrazol-4-yl)-4-methylpyrimidin-5-yl)oxy)cyclohexane-1-carboxylic acid]",74 nM
6,"Cc1nc(-c2cnn(C)c2CNc2nccc(C3CC3)n2)ncc1O[C@H]1CCC[C@H](C(=O)O)C1 [Example 12, (1S,3S)-3-((2-(5-(((4-cyclopropyl-pyrimidin-2-yl)amino)methyl)-1-methyl-1H-pyrazol-4-yl)-4-methyl-pyrimidin-5-yl)oxy)cyclohexane-1-carboxylic acid]",172 nM
7,"Cc1nc(-c2cnn(C)c2CNc2ncnc(C3CCCC3)n2)ncc1O[C@H]1CCC[C@H](C(=O)O)C1 [Example 15, (1S,3S)-3-((2-(5-(((4-cyclopenty1-1,3,5-triazin-2-yl)amino)methyl)-1-methyl-1H-pyrazol-4-yl)-4-methylpyrimidin-5-yl)oxy)cyclohexane carboxylic acid]",148 nM
8,"Cc1nc(-c2cnn(C)c2CNc2nccc(-c3ccccn3)n2)ncc1O[C@H]1CCC[C@H](C(=O)O)C1 [Example 17, (1S,3S)-3-((4-methyl-2-(1-methyl-5-(((4-(pyridin-2-yl)pyrimidin-2-yl)amino)methyl)-1H-pyrazol-4-yl)pyrimidin-5-yl)oxy)cyclohexane-1-carboxylic acid]",79 nM
9,"Cc1nc(-c2cnn(C)c2Nc2nccc(OC(C)C)n2)ncc1O[C@H]1CCC[C@H](C(=O)O)C1 [Example 18, (S,3S)-3-((2-(5-((4-isopropoxypyrimidin-2-yl)amino)-1-methyl-1H-pyrazol-4-yl)-4-methyl-pyrimidin-5-yl)oxy)cyclohexane-1-carboxylic acid]",1010 nM
10,"CCCc1ccnc(Nc2c(-c3ncc(O[C@H]4CCC[C@H](C(=O)O)C4)c(C)n3)cnn2C)n1 [Example 19, (1S,3S)-3-((4-methyl-2-(1-methyl-5-((4-propylpyrimidin-2-yl)amino)-1H-pyrazol-4-yl)pyrimidin-5-yl)oxy)cyclohexane-1-carboxylic acid]",1410 nM
11,"CCCOc1ccnc(Nc2c(-c3ncc(O[C@H]4CCC[C@H](C(=O)O)C4)c(C)n3)cnn2C)n1 [Example 20, (1S,3S)-3-((4-methyl-2-(1-methyl-5-((4-propoxypyrimidin-2-yl)amino)-1H-pyrazol-4-yl)pyrimidin-5-yl)oxy)cyclohexane-1-carboxylic acid]",1230 nM
12,"CCc1nc(-c2cnn(C)c2CNc2nccc(OC)n2)ncc1O[C@H]1CCC[C@H](C(=O)O)C1 [Example 24, (1S,3S)-3-((4-ethyl-2-(5-(((4-methoxypyrimidin-2-yl)amino)methyl)-1-methyl-1H-pyrazol-4-yl)pyrimidin-5-yl)oxy)cyclohexane-1-carboxylic acid]",350 nM

# Compounds with a lower IC50, results first:
row,IC50,SMILES
1,29 nM,"Cc1nc(-c2cnn(C)c2CNc2nccc(OC(C)C)n2)ncc1O[C@H]1CCC[C@H](C(=O)O)C1 [Example 2, (1S,3S)-3-((2-(5-(((4-Isopropoxypyrimidin-2-yl)amino)methyl)-1-methyl-1H-pyrazol-4-yl)-4-methylpyrimidin-5-yl)oxy)cyclohexane-1-carboxylic acid]"
2,22 nM,"CCOc1ccnc(NCc2c(-c3ncc(O[C@H]4CCC[C@H](C(=O)O)C4)c(C)n3)cnn2C)n1 [Example 3, (1S,3S)-3-((2-(5-(((4-ethoxypyrimidin-2-yl)amino)methyl)-1-methyl-1H-pyrazol-4-yl)-4-methyl-pyrimidin-5-yl)oxy)cyclohexane-1-carboxylic acid]"
3,22 nM,"Cc1nc(-c2cnn(C)c2CNc2nccc(OC3CC3)n2)ncc1O[C@H]1CCC[C@H](C(=O)O)C1 [Example 7, (1S,3S)-3-((2-(5-(((4-cyclopropoxy-pyrimidin-2-yl)amino)methyl)-1-methyl-1H-pyrazol-4-yl)-4-methylpyrimidin-5-yl)oxy)cyclohexane-1-carboxylic acid]"
4,33 nM,"Cc1nc(-c2cnn(C)c2CNc2nccc(OCC(C)(F)F)n2)ncc1O[C@H]1CCC[C@H](C(=O)O)C1 [Example 8, (1S,3S)-3-((2-(5-(((4-(2,2-difluoro-propoxy)pyrimidin-2-yl)amino)methyl)-1-methyl-1H-pyrazol-4-yl)-4-methylpyrimidin-5-yl)oxy)cyclo-hexane-1-carboxylic acid]"
5,32 nM,"Cc1nc(-c2cnn(C)c2CNc2nccc(Oc3ccccc3)n2)ncc1O[C@H]1CCC[C@H](C(=O)O)C1 [Example 9, (1S,3S)-3((4-methyl-2-(1-methyl-5-(((4-phenoxypyrimidin-2-yl)amino)-methyl)-1H-pyrazol-4-yl)pyrimidin-5-yl)oxy)cyclohexane-1-carboxylic acid]"
6,47 nM,"Cc1nc(-c2cnn(C)c2CNc2nccc(C(C)C)n2)ncc1O[C@H]1CCC[C@H](C(=O)O)C1 [Example 10, (1S,3S)-3-((2-(5-(((4-isopropyl-pyrimidin-2-yl)amino)methyl)-1-methyl-1H-pyrazol-4-yl)-4-methyl-pyrimidin-5-yl)oxy)cyclohexane carboxylic acid]"
7,50 nM,"Cc1nc(-c2cnn(C)c2CNc2nccc(C(C)(C)C)n2)ncc1O[C@H]1CCC[C@H](C(=O)O)C1 [Example 11, (1S,3S)-3-((2-(5-(((4-(tert-butyl)pyrimidin-2-yl)amino)methyl)-1-methyl-1H-pyrazol-4-yl)-4-methyl-pyrimidin-5-yl)oxy)cyclohexane carboxylic acid]"
8,33 nM,"Cc1nc(-c2cnn(C)c2CNc2nccc(-c3ccccc3)n2)ncc1O[C@H]1CCC[C@H](C(=O)O)C1 [Example 13, (1S,3S)-3-((4-methyl-2-(1-methyl-5-(((4-phenylpyrimidin-2-yl)amino)methyl)-1H-pyrazol-4-yl)pyrimidin-5-yl)oxy)cyclohexanecarboxylic acid]"
9,12 nM,"Cc1nc(-c2cnn(C)c2CNc2nccc(OCC(F)(F)F)n2)ncc1O[C@H]1CCC[C@H](C(=O)O)C1 [Example 16, (1S,3S)-3-((4-methyl-2-(1-methyl-5-(((4-(2,2,2-trifluoroethoxy)pyrimidin-2-yl)amino)methyl)-1H-pyrazol-4-yl)pyrimidin-5-yl)oxy)cyclohexane-1-carboxylic acid]"
10,5 nM,"CCOc1ccnc(NCc2c(-c3ncc(O[C@H]4CCC[C@H](C(=O)O)C4)c(CC)n3)cnn2C)n1 [Example 21, (1S,3S)-3-((2-(5-(((4-ethoxypyrimidin-2-yl)amino)methyl)-1-methyl-1H-pyrazol-4-yl)-4-ethylpyrimidin-5-yl)oxy)cyclohexane-1-carboxylicacid]"
11,7 nM,"CCc1nc(-c2cnn(C)c2CNc2nccc(OC3CC3)n2)ncc1O[C@H]1CCC[C@H](C(=O)O)C1 [Example 22, (1S,3S)-3-((2-(5-(((4-cyclopropoxy-pyrimidin-2-yl)amino)methyl)-1-methyl-1H-pyrazol-4-yl)-4-ethylpyrimidin-5-yl)oxy)cyclohexane-1-carboxylic acid]"
12,2 nM,"CCCOc1ccnc(NCc2c(-c3ncc(O[C@H]4CCC[C@H](C(=O)O)C4)c(CC)n3)cnn2C)n1 [Example 23, (1S,3S)-3-((4-ethyl-2-(1-methyl-5-(((4-propoxypyrimidin-2-yl)amino)methyl)-1H-pyrazol-4-yl)pyrimidin-5-yl)oxy) cyclohexane-1-carboxylic acid]"
13,18 nM,"CCc1nc(-c2cnn(C)c2CNc2nccc(OCCCF)n2)ncc1O[C@H]1CCC[C@H](C(=O)O)C1 [Example 25, (1S,3S)-3-((4-ethyl-2-(5-(((4-(3-fluoropropoxy)pyrimidin-2-yl)amino)methyl)-1-methyl-1H-pyrazol-4-yl)pyrimidin-5-yl)oxy)cyclohexane-1-carboxylic acid]"
14,15 nM,CCc1nc(-c2cnn(C)c2CNc2nccc(OCC(C)(F)F)n2)ncc1O[C@H]1CCC[C@H](C(=O)O)C1 [Example 26]

# — patent US11312706B2, “Cyclohexyl acid pyrazole azines as LPA antagonists” (BRISTOL-MYERS SQUIBB COMPANY, priority 2017, dated 2022)
